BindingDB's records for patent US10208011 (G1 Therapeutics, Inc., 2019)

Key:
[1] = biological target: T1, Estrogen receptor (Homo sapiens, UniProt P03372); experiment: Human ERalpha Reporter Assa
T1 sequence (P03372 whole entry): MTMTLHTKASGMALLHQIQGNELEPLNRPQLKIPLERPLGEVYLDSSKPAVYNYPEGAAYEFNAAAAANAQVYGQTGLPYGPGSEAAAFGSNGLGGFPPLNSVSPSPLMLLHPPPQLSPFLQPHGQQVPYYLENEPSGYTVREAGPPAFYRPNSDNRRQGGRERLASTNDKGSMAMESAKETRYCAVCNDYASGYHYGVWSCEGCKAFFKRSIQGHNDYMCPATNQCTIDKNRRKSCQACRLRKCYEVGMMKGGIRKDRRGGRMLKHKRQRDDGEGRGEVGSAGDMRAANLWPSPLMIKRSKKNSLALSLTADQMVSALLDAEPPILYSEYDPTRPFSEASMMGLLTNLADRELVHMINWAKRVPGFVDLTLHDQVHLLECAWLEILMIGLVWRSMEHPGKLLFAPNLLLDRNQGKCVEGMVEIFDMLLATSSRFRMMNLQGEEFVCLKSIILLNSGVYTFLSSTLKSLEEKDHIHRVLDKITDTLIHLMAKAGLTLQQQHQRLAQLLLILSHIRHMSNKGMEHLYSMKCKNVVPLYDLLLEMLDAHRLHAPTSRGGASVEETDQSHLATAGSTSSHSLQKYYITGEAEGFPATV
Procedure: All reagents used in this assay was supplied in the Human ERα Reporter Assay by Indigo Biosciences # IB00401. In an effort to screen selective estrogen receptor degraders (SERDs), the Human ERα Reporter Assay, supplied by Indigo Biosciences, was utilized to quantify antagonist functional activity against the human estrogen receptor. Reporter cells were thawed at 37° C. and added to pre-warmed to 37° C. cell recovery medium (CRM). Stock concentration of 17β-estradiol was serially diluted in CRM. […] Cells plus 17β-estradiol were dispensed in a kit-supplied white walled 96-well plate. Concentrated stocks of test compounds were diluted to 2× working concentrations in cell screening medium (CSM). 2× concentrated compounds were added to the plated cells in a dose-dependent manner resulting in a final concentration range of 1E-11 to 1E-5 M and a final 17β-estradiol concentration of 8E-10 M. Assay plates were incubated for 24 hours in a humidified 37° C. incubator. Culture medium was removed from the assay plates by inversion. Detection substrate and buffer was warmed to room temperature, mixed thoroughly, and immediately added to the assay plates. […] Luminescence was measured in a Synergy HTX luminescence plate reader. Data is processed utilizing GraphPad Prism 7 by graphing the relative light units measured at each compound concentration.

[2] = biological target: T1, Estrogen receptor; experiment: Estrogen Receptor (ER) Degradation Assay
Procedure: A screening strategy was implemented utilizing an In-Cell Western assay to measure their ability to degrade the estrogen receptor in vitro. MCF7 cells, which are estrogen receptor positive, were plated at a cell density of […] into black walled clear bottom 96-well plates. Cells were incubated in phenol red free Dulbecco's Modified Eagle Media (DMEM) supplemented with 8% charcoal-stripped fetal bovine calf serum for 24 hours in a humidified 37° C. incubator. Concentrated stock compounds were diluted to 10× in complete media. Compounds were added to the plated cells in a dose-dependent manner ranging from 1E-12 to 1E-05 M and incubated for an additional 24 hours at 37° C. Culture medium was removed from the culture plates by gentle inversion. Cells were fixed in 4% paraformaldehyde in 1× phosphate buffered saline-calcium magnesium free (PBS-CMF) for 15 minutes at room temperature, washed 3 times for 5 minutes each in 1×PBS-CMF. […] ER protein expression was assessed by the Licor Odyssey CLx imaging system using Image Studio v5.2. Data is processed utilizing GraphPad Prism 7 by subtracting background from the vehicle and setting the vehicle to 100% ER activity, followed by comparing treated samples to vehicle.

Compound | IC50 [1] | IC50 [2]
Cc1cc(F)cc(C)c1C(=O)c1sc2cc(O)ccc2c1Oc1ccc(OCCN2CCCCC2)cc1 [US10208011, Compound 106] | < 1000 nM | 
Cc1cc(F)cc(C)c1C(=O)c1sc2cc(O)ccc2c1Oc1ccc(OCCN2CCCCCC2)cc1 [US10208011, Compound 107] | < 1000 nM | 
Cc1cc(F)cc(C)c1C(=O)c1sc2cc(O)ccc2c1Oc1ccc(OCCN2CCCC2)cc1 [US10208011, Compound 108] |  | < 1000 nM
